Measurements published in US6482921B1, “Uridyl peptide antibiotic (UPA) derivatives, their synthesis and use” (Essential Therapeutics, Inc., priority 1999, dated 2002).
≈ marks a conversion by molar mass, not a printed value.

Tests used:
Format in all cases: cell-based
[1] = system: Escherichia Coli MC 4100 AcrAB UPA3r; assay: MIC broth microdilution, E. coli MC 4100 AcrAB UPA3r (ΔAcrAB, UPA resistant); settings: E. coli AcrAB UPA3^r
[2] = system: Pseudomonas aeruginosa PAM 1135; assay: MIC broth microdilution, P. aeruginosa PAM 1135 (high level UPA resistance); settings: P. aeruginosa PAM 1135 UPA1^r
[3] = system: Escherichia Coli MC 4100 AcrAB; assay: MIC broth microdilution, E. coli MC 4100 AcrAB (ΔAcrAB); settings: E. coli AcrAB
[4] = system: Staphylococcus aureus ATCC 29213; assay: MIC broth microdilution, S. aureus ATCC 29213 (wild type); settings: S. aureus ATCC 29213
Escherichia Coli MC 4100 = assay: MIC broth microdilution, E. coli MC 4100 (wild type); settings: E. coli MC 4100
[5] = system: Pseudomonas aeruginosa PAM 1154; assay: MIC broth microdilution, P. aeruginosa PAM 1154 (OprM::Hg); settings: P. aeruginosa PAM 1154 OprM::Hg
[6] = system: Staphylococcus aureus 8325-4; assay: MIC broth microdilution, S. aureus 8325-4 (wild type); settings: S. aureus 8325-4
[7] = system: Pseudomonas aeruginosa PAM 1020; assay: MIC broth microdilution, P. aeruginosa PAM 1020 (wild type); settings: P. aeruginosa PAM 1020
[8] = system: Pseudomonas aeruginosa PAM 1323; assay: MIC broth microdilution, P. aeruginosa PAM 1323 (medium level UPA resistance)
Protocol: Compounds were tested against several panels of bacteria. In a first panel, Table 3, several strains of Pseudomonas aeruginosa, Escherichia coli and Staphylococcus aureus were employed as the target bacteria.
For the bacteria in Table 3, the assay was performed in Mueller-Hinton Broth (MHB) with a final bacterial inoculum of 5×10^5 CFU/ml and a final volume of 100 μl. Control drugs, including imipenem and pacidimycin 4, and the test compounds were prepared at a concentration which was twice the desired final concentration (256 μg/ml). Dilution of the controls and the test compounds was accomplished directly on the test plates by serial 2-fold dilution using a multi-channel pipette. Both a positive and a negative growth control was included in each plate.
The bacterial inocula were prepared as follows. Bacterial strains were grown overnight at 35° C. in MHB. […] The culture was then diluted 1:10 and allowed to grow for an additional one hour at 35° C. in a shaking incubator. The inocula were then prepared by diluting the early log phase (one hour) cultures 1:2000 with fresh MHB. A volume of 50 μl of the inocula was added to each well, resulting in an inoculum of approximately 5×10^5 CFU/ml. The exact inocula were determined by putting 10 μl of 10-fold serial dilution of the bacterial suspensions onto TSA. After overnight incubation at 35° C., colony-forming units were counted manually.
The microtiter plates were incubated for 20 hours at 35° C. and were then read using a microtiterplate reader (Molecular Devices) at 650 nm as well as being visually observed using a microtiterplate reading mirror.

[9] = system: Pasteurella multocida pm002; assay: MIC broth microdilution, P. multocida pm002 (wild type)

Structure (SMILES)	MIC (μg/ml) Broth microdilution [1] [µg/mL]	MIC (μg/ml) Broth microdilution [2] [µg/mL]	MIC (μg/ml) Broth microdilution [3] [µg/mL]	MIC (μg/ml) Broth microdilution [4] [µg/mL]	MIC (μg/ml) Broth microdilution (Escherichia Coli MC 4100) [µg/mL]	MIC (μg/ml) Broth microdilution [5] [µg/mL]	MIC (μg/ml) Broth microdilution [6] [µg/mL]	MIC (μg/ml) Broth microdilution [7] [µg/mL]	MIC (μg/ml) Broth microdilution [8] [µg/mL]	MIC (μg/ml) Broth microdilution [9] [µg/mL]
CSCCC(NC(=O)NC(Cc1c[nH]c2ccccc12)C(=O)O)C(=O)NC(C(=O)NCC1CC(O)C(n2ccc(=O)[nH]c2=O)O1)C(C)N(C)C(=O)C(N)Cc1ccc(F)cc1 [Compound 110, 1-[5′-[(2S,3S)-N^2-[N-[[(1S)-1-Carboxy-2-indol-3-ylethyl]carbamoyl]-L-methionyl]-N^3-L-4-fluorophenylalanyl-N^3-methyl-2,3-diaminobutyramido]-3′,5′-dideoxy-α-L-arabinofuranosyl]uracil]	512 (≈ 590 µM)	256 (≈ 295 µM)	16 (≈ 18.4 µM)	>512	512 (≈ 590 µM)	32 (≈ 36.9 µM)	>512	64 (≈ 73.7 µM)	256 (≈ 295 µM)	512 (≈ 590 µM)
CSCCC(NC(=O)NC(Cc1c[nH]c2ccccc12)C(=O)O)C(=O)NC(C(=O)NCC1CC(O)C(n2ccc(=O)[nH]c2=O)O1)C(C)N(C)C(=O)C(N)Cc1ccccc1 [Compound 111, 1-[5′-[(2S,3S)-N^2-[N-([(1S)-1-Carboxy-2-indol-3-ylethyl]carbamoyl]-L-methionyl]-N^3-L-phenylalanyl-N^3-methyl-2,3-diaminobutyramido]-3′,5′-dideoxy-α-L-arabinofuranosyl]uracil]	512 (≈ 602 µM)	256 (≈ 301 µM)	8 (≈ 9.41 µM)	>512	512 (≈ 602 µM)	16 (≈ 18.8 µM)	>512	128 (≈ 151 µM)	256 (≈ 301 µM)	512 (≈ 602 µM)
CSCCC(NC(=O)NC(Cc1c[nH]c2ccccc12)C(=O)O)C(=O)NC(C(=O)NCC1CC(O)C(n2ccc(=O)[nH]c2=O)O1)C(C)N(C)C(=O)CN [Compound 112, 1-[5′-[(2S,3S)-N^2-[N-[[(1S)-1-Carboxy-2-indol-3-ylethyl]carbamoyl]-L-methionyl]-N^3-glycyl-N^3-methyl-2,3-diaminobutyramido]-3′,5′-dideoxy-α-L-arabinofuranosyl]uracil]	16 (≈ 21.1 µM)	>512	2 (≈ 2.63 µM)	>512	>512	4 (≈ 5.26 µM)	>512	16 (≈ 21.1 µM)	256 (≈ 337 µM)	128 (≈ 168 µM)
CC(C(NC(=O)C(Cc1ccc(F)cc1)NC(=O)NC(Cc1c[nH]c2ccccc12)C(=O)O)C(=O)NCC1CC(O)C(n2ccc(=O)[nH]c2=O)O1)N(C)C(=O)C(N)Cc1ccccc1 [Compound 113, 1-[5′-[(2S,3S)-[N-[[(1S)-1-Carboxy-2-indol-3-ylethyl]carbamoyl]-L-4-fluorophenylalanyl]-N^3-L-phenylalanyl-N^3-methyl-2,3-diaminobutyramido]-3′,5′-dideoxy-α-L-arabinofuranosyl]uracil]	64 (≈ 72.4 µM)	>512	8 (≈ 9.05 µM)	>512	>512	64 (≈ 72.4 µM)	>512	64 (≈ 72.4 µM)	>512	512 (≈ 579 µM)
CC(C(NC(=O)C(Cc1ccccc1)NC(=O)NC(Cc1c[nH]c2ccccc12)C(=O)O)C(=O)NCC1CC(O)C(n2ccc(=O)[nH]c2=O)O1)N(C)C(=O)C(N)Cc1ccc(F)cc1 [Compound 114, 1-[5′-((2S,3S)-N^2-[N-[[(1S)-1-Carboxy-2-indol-3-ylethyl]carbamoyl]-L-phenylalanyl]-N^3-L-4-fluorophenylalanyl-N^3-methyl-2,3-diaminobutyramidol-3′,5′-dideoxy-α-L-arabinofuranosyl]uracil]	512 (≈ 579 µM)	256 (≈ 290 µM)	8 (≈ 9.05 µM)	>512	512 (≈ 579 µM)	16 (≈ 18.1 µM)	>512	16 (≈ 18.1 µM)	256 (≈ 290 µM)	256 (≈ 290 µM)
CC(C(NC(=O)C(Cc1ccc(F)cc1)NC(=O)NC(Cc1c[nH]c2ccccc12)C(=O)O)C(=O)NCC1CC(O)C(n2ccc(=O)[nH]c2=O)O1)N(C)C(=O)CN [Compound 116, 1-[5′-[(2S,3S)-N^2-[N-[[(1S)-1-Carboxy-2-indol-3-ylethyl)carbamoyl]-L-4-fluorophenylalanyl]-N^3-glycyl-N^3-methyl-3-diaminobutyramido]-3′,5′-dideoxy-α-L-arabinofuranosyl]uracil]	16 (≈ 20.2 µM)	>512	<1	512 (≈ 645 µM)	256 (≈ 322 µM)	8 (≈ 10.1 µM)	256 (≈ 322 µM)	32 (≈ 40.3 µM)	512 (≈ 645 µM)	128 (≈ 161 µM)
CC(C(NC(=O)C(Cc1ccc(F)cc1)NC(=O)NC(Cc1c[nH]c2ccccc12)C(=O)O)C(=O)NCC1CC(O)C(n2ccc(=O)[nH]c2=O)O1)N(C)C(=O)C(N)Cc1ccc(F)cc1 [Compound 118, 1-[5′-(2S,3S)-N^2-[N-[[(1S)-1-Carboxy-2-indol-3-ylethyl]carbamoyl]-L-4-fluorophenylalanyl]-N^3-L-4-fluorophenylalanyl-N^3-methyl-2,3-diaminobutyramido]-3′,5′-dideoxy-α-L-arabinofuranosyl]uracil]	256 (≈ 284 µM)	256 (≈ 284 µM)	8 (≈ 8.87 µM)	>512	512 (≈ 568 µM)	128 (≈ 142 µM)	>512	128 (≈ 142 µM)	256 (≈ 284 µM)	256 (≈ 284 µM)
CC(N)C(=O)N(C)C(C)C(NC(=O)C(Cc1cccs1)NC(=O)NC(Cc1ccc(O)cc1)C(=O)O)C(=O)NCC1CC(O)C(n2ccc(=O)[nH]c2=O)O1 [Compound 119, 1-[5-[(2S,3S)-N^3-L-Alanyl-N^2-[N-[[(1S)-1-carboxy-4-hydroxyphenethyl]carbamoyl]-L-3-(2-thienyl)alanyl]-N^3-methyl-2,3-diaminobutyramido]-3′,5′-dideoxy-α-L-arabinofuranosyl]uracil]	64 (≈ 82.8 µM)	>512	4 (≈ 5.18 µM)	>512	>512	32 (≈ 41.4 µM)	>512	64 (≈ 82.8 µM)	>512	>512
CC(C)CC(NC(=O)NC(Cc1ccc(O)cc1)C(=O)O)C(=O)NC(C(=O)NCC1CC(O)C(n2ccc(=O)[nH]c2=O)O1)C(C)N(C)C(=O)CN [Compound 120, 1-[5′-[(2S,3S)-N^2-[N-[[(1S)-1-Carboxy-4-hydroxyphenethyl]carbamoyl]-L-leucyl)-N^3-glycyl-N^3-methyl-2,3-diaminobutyramidol-3′,5′-dideoxy-α-L-arabinofuranosyl]uracil]	128 (≈ 178 µM)	>512	8 (≈ 11.1 µM)	>512	>512	4 (≈ 5.57 µM)	>512	16 (≈ 22.3 µM)	512 (≈ 712 µM)	512 (≈ 712 µM)
